Experimental data reported in patent US20100041691A1, “PHARMACEUTICAL COMPOSITIONS COMPRISING COMBINATIONS OF AN AMPA/KAINATE ANTAGONISTIC COMPOUND AND AN INHIBITOR OF A MULTIDRUG RESISTANCE PROTEIN” (NeuroSearch A/S, priority 2006, published 2010).
Where two headings read alike, the source gives them in different places.

How the values were obtained:
[1] = test system: P-gp; conditions: inhibition of P-gp in phenytoin-treated chronic epileptic rats; cited from earlier work
[2] = test system: tonic seizures induced by 26 mA corneal stimulation; conditions: Compound A i.v. 60 minutes before electroshock, female NMRI mice
Source text: After administration of vehicle or test substance female NMRI mice were stimulated with 26 mA for 0.3 seconds, using corneal stimulation (Rodent Shocker, Hugo Sachs Electronic, Germany). In presence of tonic seizure the mice was labeled 0% protection and if no tonic seizure was detected the mice was labeled 100% protection. Results were plotted as a function of logarithmic dose and fitted to a sigmoid-dose response (with variable slope (GraphPad Prism, ver. 4) and used to estimate the dose that would give a 50% protection from seizures (N=6/group).
Vehicle (5% chremophor) was dosed p.o.

[3] = 10 mg/kg i.v. with Verapamil I.C.V. versus Compound A only; mice; 5-60 minutes
Procedure: 16 NMRI-mice were allocated into 4 groups. The animals were anesthetised in 1.5% Isuflurane and 20% O2. […] At different time point (5 minutes, 15 minutes, 30 minutes and 60 minutes) after dosing the animals were killed by decapitation and blood and brain were collected. The EDTA stabilised blood was centrifugation at 4000 rpm for 20 minutes at 4° C. Plasma and brain samples were stored at −20° C. pending analysis.
Plasma and brain samples were analysed using LC-MS/MS (Quattro Ultimo Platinum with Acquility solvent and sample manager, Waters) in positive electrospray 10 ionisation and multiple reaction monitoring mode. The analytical column was a UPLC Acquility BEH C18 (1.7 μm) 1.0×50 mm (Waters) with gradient elution at a 0.13 ml/min flow rate. The initial mobile phase was 20% methanol/80% formic acid changed to 90% methanol/10% formic acid over a time period of 1.7 min.
Samples were centrifuged for 25 minutes at 5° C., 14000 rpm and 3 μl of the supernatants were injected onto the LC-column.
Brain tissue (0.1 g) was weighed out on top of a tube containing 0.8 ml bead (1.0 mm Zirconia from BioSpec Products). […]
Samples were quantified based on standard curves (linear, 1/×weighting), prepared in plasma and brain tissue respectively.

SMILES	seizure control [1]	ED50, protection against tonic seizures ([2]; pretreatment with Tariquidar 24 mg/kg p.o. 120 minutes before) [mg/kg]	ED50, protection against tonic seizures ([2]; with vehicle (5% chremophor p.o.)) [mg/kg]	brain exposure of Compound A [3]
COc1cc2c(cc1OC)CN(CCc1ccc(NC(=O)c3cc(OC)c(OC)cc3NC(=O)c3cnc4ccccc4c3)cc1)CC2 [Tariquidar]	improves seizure control			
CN1CCc2c(-c3ccc(S(=O)(=O)N(C)C)cc3)cc3c(c2C1)NC(=O)C3=NOC(CCO)C(=O)O (stereo not shown) [Compound A, 8-Methyl-5-(4-(N,N-dimethyl-sulfamoyl)phenyl)-6,7,8,9-tetrahydro-1H-pyrrolo[3,2h]-isoqinoline-2,3-dione-3-O-(4-hydroxybutyric acid-2-yl)oxime]		24	31.5	increase in brain exposure
